Key:
[1] = tested on: R5-tropic HIV-1Bal Vpr-GFP in primary astroglial cells; assay: Confocal microscopy of HIV-1Bal Vpr-GFP entry into astroglial cells; type: cell-based; settings: 100 nM, 18 to 20 h
Method: For direct visualization of viral entry, fluorescent HIV-1 particles were generated by co-transfection of a vector containing a full-length R5-tropic HIV-1 provirus (NIH AIDS Research & Reference Reagent Program, Division of AIDS, NIAID, NIH: pWT/BaL (catalog #11414) and Vpr-GFP into HEK-293T cells as described in [9]. Primary astroglial cells were infected with the HIV-1 Vpr-GFP particles in the absence or presence of 100 nM bivalent ligand for 18 to 20 h at 37° C., washed in PBS, fixed with 4% paraformaldehyde, and counterstained with DAPI. Cells were imaged using a Zeiss LSM 700 laser scanning confocal microscope equipped with a 63×(1.42 numerical aperture [NA]) objective, using 488-nm laser excitation with dichroic beam-splitter set at 492 nm to optimize GFP detection.

MOR [2] = target: T1, MOR (Homo sapiens (Human), UniProt P35372); assay: Calcium mobilization assay, CCR5-MOR CHO co-expressed cell line (Gqi5), DAMGO-stimulated; type: cell-based
Method: Having a cell line that consistently expresses both CCR5 and MOR was essential for studying how the two receptors interact with each other using calcium mobilization assays and cell fusion assays. A previously established MOR Chinese hamster ovarian (CHO) cell line was transfected with a plasmid containing CCR5 tagged with a yellow fluorescent protein on its N-terminus (CCR5-YFP). ^1 After 48 hours cells were sorted based upon the presence of the yellow fluorescent protein tag using a flow cytometer. Cells containing the tagged receptors were then cultured and used in the subsequent assays.
Calcium mobilization is directly related to G protein-coupled receptor (GPCR) activation and therefore is a useful technique to study the functional activity of new ligands.

human astrocytes = assay: Cytotoxicity assay, AOPI live/dead labeling of human astrocytes; type: cell-based
Method: Cell viability was assessed by measurement of both live and dead cells using dual (green/red) fluorescence labeling with AOPI analyzed with Cellometer Vision CBA (Nexcelom Bioscience LLC).
To determine whether HIV-1±morphine exposure affected astrocyte viability in the presence or absence of MVC or the bivalent compound, a cell death assay was performed at 24 h after treatment.

RANTES = assay: Chemokine release ELISA, HIV-1 infected astroglia supernatant: RANTES; type: cell-based, human; settings: 18-20 h; bivalent ligand ± morphine
Method: (§1) The protein levels of the cytokines TNF-α, IL-6, IL-1β and the chemokine RANTES were measured by ELISA (Quantikine kits; R&D Systems Minneapolis, Minn.).
(§2) After 18-20 h exposure, supernatant was removed and analyzed by ELISA to quantitatively analyze the release of the cytokines TNF-α, IL-1β and IL-6 and the chemokine RANTES.

[3] = tested on: fusion of CCR5-MOR CHO target cells (CD4) with HEK effector cells (HIV-1 gp140); type: cell-based
CCR5 = CCR5 (Homo sapiens (Human), UniProt P51681); assay: RANTES-stimulated Ca2+ flux assay in Gqi5 transfected CCR5-MOLT-4 cells (Example 4); type: cell-based
[4] = tested on: R5-tropic HIV-1SF162 in primary human astrocytes; assay: HIV-1SF162 infectivity, Tat luciferase reporter assay in primary human astrocytes; type: cell-based
Method: Primary human astrocytes (ScienCell catalog #1901) were cultured in 24-well plates and transfected with the plasmid pBlue3′LTR-luc (NIH AIDS Research and Reference Reagent Program) using Lipofectamine 2000 (Invitrogen) followed by infection with HIV-1. After 18-20 h cells were rinsed twice in 1×PBS then lysed in Cell Culture Lysis Reagent (Promega) and relative Tat protein expression was determined by measuring luciferase activity using the Luciferase Assay System (Promega; catalog # E1500). Light units were measured using a PHERAstar FS plate reader (BMG Labtech).
Primary human astroglial cells were infected by incubation with the neurotropic HIV-1 strain SF162. A concentration of HIV-1 p24 50 pg/10^6 cells was used, and a no virus condition served as a negative control. Viral stocks were quantified by assaying for HIV-1 p24 (Alliance p24 Antigen ELISA Kit; Advanced Bioscience, Kensington, Md.).
HIV-1SF162 infectivity of human astroglia was determined based on the relative amount of Tat protein expressed by the virus using a luciferase-based reporter assay. Reporters under the control of the long terminal repeat (LTR) viral promoter are a robust means of measuring HIV-1 infection, since the LTR is activated by HIV-1 Tat, which is only expressed by infected cells.
As the bivalent ligand 1 has been designed as a molecular probe to study the underlying mechanisms of opioid-enhanced NeuroAIDS by targeting the MOR-CCR5 heterodimerization, a luciferase-based HIV-1SF162) infection assay measuring the relative transactivator of transcription (Tat) protein expression in human astrocytes was performed (FIG. 15). Tat is encoded by HIV-1 and is the first protein to be produced after HIV-1 infection. Thus, Tat expression level is directly proportioned to the extent of HIV-1 invasion. Astrocytes were chosen based on the following facts: first, astrocytes express both the MOR and the CCR5. Second, the human blood-brain barrier (BBB) is composed of interacting adjacent cerebral endothelial cells (CECs) and astrocytes, which makes astrocytes a readily accessible target during the course of HIV infection. Thirdly, during NeuroAIDS development astroglia are important cellular sites within the CNS where opioids synergistically potentiate the pathophysiological effects of HIV-1 infection.

TNF-α = assay: Cytokine release ELISA, HIV-1 infected astroglia supernatant: TNF-α; type: cell-based, human; settings: 18-20 h; bivalent ligand ± morphine
Method: as §1, §2

MOR [5] = target: T1, MOR; assay: DAMGO-stimulated Ca2+ flux assay in hMOR-CHO cells transfected with Gqi5; type: cell-based

CCR5, sequence (P51681 whole entry): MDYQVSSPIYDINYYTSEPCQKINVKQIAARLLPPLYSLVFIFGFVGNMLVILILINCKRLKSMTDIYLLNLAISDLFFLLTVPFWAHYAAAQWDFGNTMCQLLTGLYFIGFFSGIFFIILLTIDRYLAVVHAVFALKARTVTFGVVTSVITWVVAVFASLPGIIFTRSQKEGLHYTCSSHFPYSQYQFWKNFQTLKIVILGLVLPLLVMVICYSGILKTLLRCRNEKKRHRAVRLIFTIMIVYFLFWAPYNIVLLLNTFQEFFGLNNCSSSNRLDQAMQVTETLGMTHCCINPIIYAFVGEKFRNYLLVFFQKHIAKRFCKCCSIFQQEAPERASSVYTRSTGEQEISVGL

Cc1nnc(C(C)C)n1C1CC2CCC(C1)N2CC[C@H](NC(=O)C1CCC(F)(F)CC1)c1ccc(NC(=O)COCC(=O)NCCCCCCCNC(=O)COCC(=O)N[C@@H]2CC[C@@]3(O)[C@H]4Cc5ccc(O)c6c5[C@@]3(CCN4CC3CC3)[C@H]2O6)cc1 (some centres unmarked) [bivalent ligand 1]
viral entry by confocal microscopy [1]: abolished viral entry | IC50 (MOR [2]): 30 ± 2.44 nM | astrocyte viability (human astrocytes; 100 nM, HIV-1 ± morphine, 24 h): did not significantly affect the survival | toxicity in the astrocytes, cytotoxicity assays (not shown) (human astrocytes; Example 3): neither maraviroc nor 1 had any toxicity | fold decrease in RANTES release compared to R5 HIV-1 alone (RANTES): 1.5 fold | effect on cell fusion ([3]; 1 at 3000 nM, 2 at 10000 nM, maraviroc at 100 nM): significantly lowered cell fusion | amplification of cell fusion inhibition when morphine present ([3]; morphine 300 nM): 2 fold | fold less potent than maraviroc in RANTES induced Ca2+ flux inhibition (CCR5): approximately 60 fold | IC50 (CCR5; RANTES stimulated, read-out: Ca2+ inhibition IC50 ± SEM): 126 ± 28 nM | CCR5 agonism (CCR5; data not shown): no CCR5 agonism | potency in HIV-1 entry inhibition relative to the mixture of maraviroc and naltrexone [4]: two times | decrease in Tat expression compared to maraviroc alone or the combination of maraviroc and naltrexone ([4]; 100 nM): two-fold | fold decrease in Tat expression compared to MVC with NTX plus morphine, bivalent compound plus morphine ([4]; 100 nM + morphine 500 nM): 4.4 fold | fold decrease in Tat expression compared to R5 plus MVC, bivalent compound plus morphine ([4]; 100 nM + morphine 500 nM): 2.9 fold | fold decrease in Tat expression compared to R5 HIV-1 alone ([4]; 100 nM, 18-20 h post-infection, no morphine): 4.4 fold | fold decrease in virus entry compared to maraviroc with morphine ([4]; 100 nM, morphine 500 nM, Example 3): 7 fold | fold decrease in virus entry compared to maraviroc alone ([4]; 100 nM, without morphine, Example 3): 3.3 fold | fold decrease in Tat expression compared to R5 plus MVC ([4]; bivalent ligand 100 nM, no morphine): 2.0 fold | effect of morphine stimulation on potency ([4]; morphine 500 nM): no effect | fold decrease in TNF-α release compared to R5 HIV-1 alone (TNF-α): 2.0 fold | fold reduction of potency to antagonize DAMGO-induced Ca2+ flux compared to naltrexone (MOR [5]): less than 5 fold | IC50 (MOR [5]; DAMGO stimulated, hMOR-CHO Gqi5, read-out: Ca2+ inhibition IC50 ± SEM): 40 ± 4.8 nM | agonism in Ca2+ mobilization assay (MOR [5]; hMOR-CHO Gqi5, data not shown): No agonism

From US9107954B2, “Bivalent ligands for the treatment of neurological disorders” (Virginia Commonwealth University, priority 2012, dated 2015)
